In patent US7148232B2, “Oxazolo, thiazolo and selenazolo [4,5-c]-quinolin-4-amines and analogs thereof” (3M Innovative Properties Company, priority 1998, dated 2006):

Experiments:
interferon (α) [1] = test: Cytokine induction in human cells: interferon (α) secreted by PBMCs (ELISA or bioassay); format: cell-based; conditions: 18 to 24 hours
Protocol: (§1) An in vitro human blood cell system was used to assess cytokine induction by compounds of the invention.
(§2) Whole blood is collected by venipuncture into EDTA vacutainer tubes from healthy human donors. […] The PBMC suspension is added to 48 well flat bottom sterile tissue culture plates (Costar, Cambridge, Mass. or Becton Dickinson Labware, Lincoln Park, N.J.) containing an equal volume of RPMI complete media containing test compound.
(§3) The compounds are solubilized in dimethyl sulfoxide (DMSO). The DMSO concentration should not exceed a final concentration of 1% for addition to the culture wells.
(§4) The solution of test compound is added at 60 μM to the first well containing RPMI complete and serial 3 fold dilutions are made. The PBMC suspension is then added to the wells in an equal volume, bringing the test compound concentrations to the desired range (0.12 to 30 μM). The final concentration of PBMC suspension is 1.5–2×10^6 cells/mL. The plates are covered with sterile plastic lids, mixed gently and then incubated for 18 to 24 hours at 37° C. in a 5% carbon dioxide atmosphere.
(§5) Following incubation the plates are centrifuged for 5–10 minutes at 1000 rpm (˜200×g) at 4° C. The cell culture supernatant is removed with a sterile polypropylene pipet and transferred to sterile polypropylene tubes. Samples are maintained at −30 to −70° C. until analysis. The samples are analyzed for interferon (α) by either ELISA or bioassay and for tumor necrosis factor (α) by ELISA
Interferon is determined by bioassay using A549 human lung carcinoma cells challenged with encephalomyocarditis. […] Briefly stated the method is as follows: A549 cells are incubated with dilutions of samples or a standard interferon at 37° C. for 24 hours. The incubated cells are then infected with an inoculum of encephalomyocarditis virus. The infected cells are incubated for an additional 24 hours at 37° C. before evaluating for viral cytopathic effect. The viral cytopathic effect is quantified by staining with crystal violet followed by visual scoring of the plates. Results are expressed as alpha reference units/mL based on the value obtained for NIH Human Leukocyte IFN standard.
Interferon (α) concentration is determined by ELISA using a Human Multi-Species kit from PBL Biomedical Laboratories, New Brunswick, N.J. according to the manufacturer's instructions.

[2] = test system: tumor necrosis factor (α); test: Cytokine induction in human cells: tumor necrosis factor (α) secreted by PBMCs (ELISA); format: cell-based; conditions: 18 to 24 hours
Protocol: as §1, §2, §3, §4, §5
Tumor necrosis factor (α) (TNF) concentration is determined using ELISA kits available from Genzyme, Cambridge, Mass.; R&D Systems, Minneapolis, Minn.; or Pharmingen, San Diego, Calif. according to the manufacturer's instructions.

interferon (α) [3] = test: Interferon (α) induction in human cells (in vitro human blood cell system, interferon by bioassay); format: cell-based; conditions: human PBM's, 48 hours

| Structure (SMILES) | melting point [°C] | Interferon (α) Induction (interferon (α) [1]; Dose Concentration 0.12 μM) | Interferon (α) Induction (interferon (α) [1]; Dose Concentration 0.37 μM) | Interferon (α) Induction (interferon (α) [1]; Dose Concentration 1.11 μM) | Interferon (α) Induction (interferon (α) [1]; Dose Concentration 3.33 μM) | Interferon (α) Induction (interferon (α) [1]; Dose Concentration 10 μM) | Interferon (α) Induction (interferon (α) [1]; Dose Concentration 30 μM) | Tumor Necrosis Factor Induction ([2]; Dose Concentration 0.12 μM) | Tumor Necrosis Factor Induction ([2]; Dose Concentration 0.37 μM) | Tumor Necrosis Factor Induction ([2]; Dose Concentration 1.11 μM) | Tumor Necrosis Factor Induction ([2]; Dose Concentration 3.33 μM) | Tumor Necrosis Factor Induction ([2]; Dose Concentration 10 μM) | Tumor Necrosis Factor Induction ([2]; Dose Concentration 30 μM) | Interferon (α) Induction in Human Cells (interferon (α) [3]; Dose Concentration 0.01 μg/mL) | Interferon (α) Induction in Human Cells (interferon (α) [3]; Dose Concentration 0.05 μg/mL) | Interferon (α) Induction in Human Cells (interferon (α) [3]; Dose Concentration 0.10 μg/mL) | Interferon (α) Induction in Human Cells (interferon (α) [3]; Dose Concentration 0.50 μg/mL) | Interferon (α) Induction in Human Cells (interferon (α) [3]; Dose Concentration 1.0 μg/mL) | Interferon (α) Induction in Human Cells (interferon (α) [3]; Dose Concentration 5.0 μg/mL) | Interferon (α) Induction in Human Cells (interferon (α) [3]; Dose Concentration 10.0 μg/mL) | other results |
| --- | --- | --- | --- | --- | --- | --- | --- | --- | --- | --- | --- | --- | --- | --- | --- | --- | --- | --- | --- | --- | --- |
| Nc1nc2ccccc2c2sc(CCc3ccccc3)nc12 [Example 24, 2-(2-Phenyl-1-ethyl)thiazolo[4,5-c]quinolin-4-amine] | 158 to 159 | − | − | − | − | − | − | − | − | − | − | − | + | − | − | − | − | − | − | + | Interferon (α) Induction in Human Cells (interferon (α) [3]; Dose Concentration 25.0 μg/mL): +; Interferon (α) Induction in Human Cells (interferon (α) [3]; Dose Concentration 50.0 μg/mL): + |
| CCCc1nc2c(N)nc3ccc(N)cc3c2s1 [Example 42, 2-Propylthiazolo[4,5-c]quinolin-4,8-diamine] | 190 to 192 | − | − | − | − | + | − | − | − | + | + | + | + | − | − | − | + | + | + |  |  |
| Nc1nc2ccccc2c2sc(N3CCOCC3)nc12 [Example 53, 2-(4-Morpholino)thiazolo[4,5-c]quinolin-4-amine] | 225 to 227 | − | − | − | − | − | − | − | − | − | − | − | − | − | − | − | − | − | − | − | Interferon (α) Induction in Human Cells (interferon (α) [3]; Dose Concentration 25.0 μg/mL): +; Interferon (α) Induction in Human Cells (interferon (α) [3]; Dose Concentration 50.0 μg/mL): + |
